Laboratory results from patent US20140205537A1, “LRRK2 INHIBITORS” (ZENOBIA THERAPEUTICS, INC., priority 2011, published 2014).

Experiments:
Format in all cases: biochemical
BRAF = BRAF (Homo sapiens, UniProt P15056); assay: Kinase selectivity panel: BRAF
LCK = LCK (Homo sapiens, UniProt P06239); assay: Kinase selectivity panel: LCK
PDGFRbeta = PDGFRbeta (Homo sapiens, UniProt P09619); assay: Kinase selectivity panel: PDGFRbeta
FGFR1 = FGFR1 (Homo sapiens, UniProt P11362); assay: Kinase selectivity panel: FGFR1
MARK2 = MARK2 (Homo sapiens, UniProt Q7KZI7); assay: Kinase selectivity panel: MARK2
ALK4 = ALK4 (Homo sapiens, UniProt P36896); assay: Kinase selectivity panel: ALK4
ERK2 = ERK2 (Homo sapiens, UniProt P28482); assay: Kinase selectivity panel: ERK2
JAK3 = JAK3 (Homo sapiens, UniProt P52333); assay: Kinase selectivity panel: JAK3
CDK5/p35 = CDK5/p35 (Homo sapiens, UniProt Q00535); assay: Kinase selectivity panel: CDK5/p35
mTOR = mTOR (Homo sapiens, UniProt P42345); assay: Kinase selectivity panel: mTOR
JNK1 = JNK1 (Homo sapiens, UniProt P45983); assay: Kinase selectivity panel: JNK1
SYK = SYK (Homo sapiens, UniProt P43405); assay: Kinase selectivity panel: SYK
PAK4 = PAK4 (Homo sapiens, UniProt O96013); assay: Kinase selectivity panel: PAK4
AURKA = target: T1, AURKA (Homo sapiens, UniProt O14965); assay: Kinase selectivity panel: AURKA
T1 sequence (O14965 1-403): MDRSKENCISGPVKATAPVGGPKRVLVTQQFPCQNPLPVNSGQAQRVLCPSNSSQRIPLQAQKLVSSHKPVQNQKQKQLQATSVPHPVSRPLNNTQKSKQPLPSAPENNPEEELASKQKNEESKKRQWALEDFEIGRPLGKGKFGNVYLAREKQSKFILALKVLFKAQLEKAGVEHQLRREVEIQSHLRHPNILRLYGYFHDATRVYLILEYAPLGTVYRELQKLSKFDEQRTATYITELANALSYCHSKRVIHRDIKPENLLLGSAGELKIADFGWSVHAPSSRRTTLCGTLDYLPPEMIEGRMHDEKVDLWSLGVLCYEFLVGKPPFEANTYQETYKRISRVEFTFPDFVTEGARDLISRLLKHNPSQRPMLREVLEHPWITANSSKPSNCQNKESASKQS

PKA = PKA (Homo sapiens, UniProt P17612); assay: Kinase selectivity panel: PKA
DCK2 = DCK2 (Homo sapiens, UniProt Q8N568); assay: Kinase selectivity panel: DCK2
MEK1 = MEK1 (Homo sapiens, UniProt Q02750); assay: Kinase selectivity panel: MEK1
ABL1 = ABL1 (Homo sapiens, UniProt P00519); assay: Kinase selectivity panel: ABL1
RSK2 = RSK2 (Homo sapiens, UniProt P51812); assay: Kinase selectivity panel: RSK2
CDK1/cyclinB = CDK1/cyclinB (Homo sapiens, UniProt P06493); assay: Kinase selectivity panel: CDK1/cyclinB
NEK1 = NEK1 (Homo sapiens, UniProt Q96PY6); assay: Kinase selectivity panel: NEK1
MAPKAPK2 = MAPKAPK2 (Homo sapiens, UniProt P49137); assay: Kinase selectivity panel: MAPKAPK2
EGFR = EGFR (Homo sapiens, UniProt P00533); assay: Kinase selectivity panel: EGFR
GSK3beta = GSK3beta (Homo sapiens, UniProt P49841); assay: Kinase selectivity panel: GSK3beta
AMPK A1/B1/G1 = AMPK A1/B1/G1 (Homo sapiens, UniProt Q13131); assay: Kinase selectivity panel: AMPK A1/B1/G1
PKC beta1 = PKC beta1 (Homo sapiens, UniProt P05771); assay: Kinase selectivity panel: PKC beta1
CHEK1 = target: T2, CHEK1 (Homo sapiens, UniProt O14757); assay: Kinase selectivity panel: CHEK1
T2 sequence (O14757 1-476): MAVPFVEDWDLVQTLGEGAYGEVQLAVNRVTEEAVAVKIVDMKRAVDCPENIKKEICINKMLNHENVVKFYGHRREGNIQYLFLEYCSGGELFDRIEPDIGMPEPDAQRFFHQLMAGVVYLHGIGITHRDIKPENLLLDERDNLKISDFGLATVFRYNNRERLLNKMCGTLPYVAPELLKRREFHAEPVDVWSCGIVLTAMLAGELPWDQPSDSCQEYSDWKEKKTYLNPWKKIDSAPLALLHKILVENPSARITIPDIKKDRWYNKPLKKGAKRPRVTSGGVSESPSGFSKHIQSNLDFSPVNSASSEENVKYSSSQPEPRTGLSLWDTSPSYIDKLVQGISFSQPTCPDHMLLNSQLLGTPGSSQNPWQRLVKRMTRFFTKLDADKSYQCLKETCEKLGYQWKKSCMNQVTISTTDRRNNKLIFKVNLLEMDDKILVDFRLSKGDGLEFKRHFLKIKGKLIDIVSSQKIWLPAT

AKT1 = AKT1 (Homo sapiens, UniProt P31749); assay: Kinase selectivity panel: AKT1
CK2 alpha 1 = CK2 alpha 1 (Homo sapiens, UniProt P68400); assay: Kinase selectivity panel: CK2 alpha 1
DYRK3 = DYRK3 (Homo sapiens, UniProt O43781); assay: Kinase selectivity panel: DYRK3

Sequence of CDK5/p35 (Q00535 whole entry, species assumed): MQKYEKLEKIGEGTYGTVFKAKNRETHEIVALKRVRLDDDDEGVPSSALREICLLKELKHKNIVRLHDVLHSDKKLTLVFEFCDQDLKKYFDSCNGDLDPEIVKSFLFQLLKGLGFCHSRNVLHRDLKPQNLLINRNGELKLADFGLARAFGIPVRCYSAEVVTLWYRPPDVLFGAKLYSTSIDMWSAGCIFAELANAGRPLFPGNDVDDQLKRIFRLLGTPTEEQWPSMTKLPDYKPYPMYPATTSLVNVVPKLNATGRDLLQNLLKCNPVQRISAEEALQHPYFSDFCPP
Sequence of CDK5/p35 (Q15078 whole entry partner, species assumed): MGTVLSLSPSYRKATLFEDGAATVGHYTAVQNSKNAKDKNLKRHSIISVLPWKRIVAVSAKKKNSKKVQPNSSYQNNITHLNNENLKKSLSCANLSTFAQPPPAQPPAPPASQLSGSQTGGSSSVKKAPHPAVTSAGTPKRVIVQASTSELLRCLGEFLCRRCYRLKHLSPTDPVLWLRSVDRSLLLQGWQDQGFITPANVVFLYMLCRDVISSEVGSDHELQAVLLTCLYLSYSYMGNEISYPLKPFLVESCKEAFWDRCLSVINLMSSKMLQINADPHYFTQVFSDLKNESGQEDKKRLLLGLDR
Sequence of MARK2 (Q7KZI7 whole entry, species assumed): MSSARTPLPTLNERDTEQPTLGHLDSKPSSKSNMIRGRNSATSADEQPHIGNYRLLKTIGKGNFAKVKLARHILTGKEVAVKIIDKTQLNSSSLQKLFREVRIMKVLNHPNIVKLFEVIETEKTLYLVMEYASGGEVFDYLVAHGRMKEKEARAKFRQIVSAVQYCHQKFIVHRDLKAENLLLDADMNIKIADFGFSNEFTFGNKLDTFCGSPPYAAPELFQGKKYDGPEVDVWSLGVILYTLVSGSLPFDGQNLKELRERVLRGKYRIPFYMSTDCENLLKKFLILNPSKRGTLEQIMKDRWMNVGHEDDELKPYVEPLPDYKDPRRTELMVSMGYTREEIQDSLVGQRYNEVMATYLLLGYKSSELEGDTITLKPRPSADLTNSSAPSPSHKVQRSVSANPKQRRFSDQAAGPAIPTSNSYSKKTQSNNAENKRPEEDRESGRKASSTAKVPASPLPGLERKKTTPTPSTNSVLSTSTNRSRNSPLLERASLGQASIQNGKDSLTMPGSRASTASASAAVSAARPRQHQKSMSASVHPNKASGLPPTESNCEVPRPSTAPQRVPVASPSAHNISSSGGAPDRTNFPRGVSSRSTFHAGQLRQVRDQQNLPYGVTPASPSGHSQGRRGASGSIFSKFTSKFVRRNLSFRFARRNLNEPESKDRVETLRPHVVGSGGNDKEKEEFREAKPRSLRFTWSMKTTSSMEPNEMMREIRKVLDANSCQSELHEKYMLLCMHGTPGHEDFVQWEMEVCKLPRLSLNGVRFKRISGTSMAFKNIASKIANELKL
Sequence of ABL1 (P00519 whole entry, species assumed): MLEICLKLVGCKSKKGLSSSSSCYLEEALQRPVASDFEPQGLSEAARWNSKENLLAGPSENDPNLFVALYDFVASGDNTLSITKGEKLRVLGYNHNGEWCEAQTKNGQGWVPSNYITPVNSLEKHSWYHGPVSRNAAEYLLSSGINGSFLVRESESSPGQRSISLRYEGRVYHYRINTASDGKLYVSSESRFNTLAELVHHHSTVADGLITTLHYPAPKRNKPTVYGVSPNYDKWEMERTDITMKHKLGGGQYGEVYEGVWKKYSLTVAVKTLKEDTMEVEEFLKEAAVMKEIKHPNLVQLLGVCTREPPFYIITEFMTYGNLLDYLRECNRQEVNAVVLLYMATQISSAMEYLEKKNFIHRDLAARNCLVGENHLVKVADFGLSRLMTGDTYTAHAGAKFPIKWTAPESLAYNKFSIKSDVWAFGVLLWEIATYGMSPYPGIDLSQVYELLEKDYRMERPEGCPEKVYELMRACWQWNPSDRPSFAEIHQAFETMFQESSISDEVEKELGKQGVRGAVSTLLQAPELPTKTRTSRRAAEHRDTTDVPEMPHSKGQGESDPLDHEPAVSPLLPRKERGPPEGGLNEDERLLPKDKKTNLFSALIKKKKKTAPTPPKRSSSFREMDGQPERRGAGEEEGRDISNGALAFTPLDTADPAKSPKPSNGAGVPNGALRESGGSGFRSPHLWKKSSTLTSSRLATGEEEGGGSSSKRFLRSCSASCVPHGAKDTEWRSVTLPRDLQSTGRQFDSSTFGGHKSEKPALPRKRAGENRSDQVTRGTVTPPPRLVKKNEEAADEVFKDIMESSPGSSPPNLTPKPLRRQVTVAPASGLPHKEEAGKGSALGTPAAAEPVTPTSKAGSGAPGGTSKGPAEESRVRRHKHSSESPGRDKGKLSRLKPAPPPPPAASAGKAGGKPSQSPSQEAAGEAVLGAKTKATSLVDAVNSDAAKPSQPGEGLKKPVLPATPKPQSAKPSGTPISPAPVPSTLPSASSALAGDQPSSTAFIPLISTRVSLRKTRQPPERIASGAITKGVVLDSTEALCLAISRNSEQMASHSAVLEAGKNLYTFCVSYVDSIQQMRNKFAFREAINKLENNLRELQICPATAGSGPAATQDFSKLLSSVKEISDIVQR
Sequence of ERK2 (P28482 whole entry, species assumed): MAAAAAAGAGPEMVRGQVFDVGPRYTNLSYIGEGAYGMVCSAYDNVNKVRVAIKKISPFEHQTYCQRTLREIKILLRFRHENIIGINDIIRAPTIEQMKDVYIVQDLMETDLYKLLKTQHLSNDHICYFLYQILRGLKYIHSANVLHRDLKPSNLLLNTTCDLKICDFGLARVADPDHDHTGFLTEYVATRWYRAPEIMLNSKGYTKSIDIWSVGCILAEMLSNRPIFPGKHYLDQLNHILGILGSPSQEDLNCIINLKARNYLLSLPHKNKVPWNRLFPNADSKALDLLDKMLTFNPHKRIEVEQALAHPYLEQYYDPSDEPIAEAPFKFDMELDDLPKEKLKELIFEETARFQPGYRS
Sequence of RSK2 (P51812 whole entry, species assumed): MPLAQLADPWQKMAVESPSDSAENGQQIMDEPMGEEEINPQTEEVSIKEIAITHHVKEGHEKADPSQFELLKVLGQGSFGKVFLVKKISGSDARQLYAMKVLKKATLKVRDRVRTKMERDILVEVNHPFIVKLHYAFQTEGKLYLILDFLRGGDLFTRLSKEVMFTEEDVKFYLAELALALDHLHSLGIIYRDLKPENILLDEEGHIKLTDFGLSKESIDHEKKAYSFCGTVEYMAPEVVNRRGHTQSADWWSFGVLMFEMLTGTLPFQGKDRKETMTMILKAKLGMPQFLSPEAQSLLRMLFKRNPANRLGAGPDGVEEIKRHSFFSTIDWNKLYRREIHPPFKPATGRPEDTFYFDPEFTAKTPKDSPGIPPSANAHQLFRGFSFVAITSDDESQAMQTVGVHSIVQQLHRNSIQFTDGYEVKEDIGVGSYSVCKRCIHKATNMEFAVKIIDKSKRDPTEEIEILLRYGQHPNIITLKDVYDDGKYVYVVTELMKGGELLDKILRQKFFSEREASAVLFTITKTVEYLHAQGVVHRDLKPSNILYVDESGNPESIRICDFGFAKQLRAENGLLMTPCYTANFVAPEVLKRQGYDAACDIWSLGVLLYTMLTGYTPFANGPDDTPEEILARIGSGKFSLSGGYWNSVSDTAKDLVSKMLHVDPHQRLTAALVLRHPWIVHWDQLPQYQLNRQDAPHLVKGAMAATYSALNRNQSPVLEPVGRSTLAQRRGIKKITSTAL
Sequence of CK2 alpha 1 (P68400 whole entry): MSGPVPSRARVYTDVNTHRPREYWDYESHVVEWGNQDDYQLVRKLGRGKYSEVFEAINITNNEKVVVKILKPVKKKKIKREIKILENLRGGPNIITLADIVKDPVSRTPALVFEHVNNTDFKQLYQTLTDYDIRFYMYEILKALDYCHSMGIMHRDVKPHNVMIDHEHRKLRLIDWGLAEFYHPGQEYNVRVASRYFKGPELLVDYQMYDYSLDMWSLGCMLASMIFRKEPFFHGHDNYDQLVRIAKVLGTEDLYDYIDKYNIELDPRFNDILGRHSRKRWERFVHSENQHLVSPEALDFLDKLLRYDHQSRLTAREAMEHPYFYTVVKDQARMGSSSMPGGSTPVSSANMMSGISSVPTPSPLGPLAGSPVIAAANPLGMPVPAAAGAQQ
Sequence of ALK4 (P36896 24-505, species assumed): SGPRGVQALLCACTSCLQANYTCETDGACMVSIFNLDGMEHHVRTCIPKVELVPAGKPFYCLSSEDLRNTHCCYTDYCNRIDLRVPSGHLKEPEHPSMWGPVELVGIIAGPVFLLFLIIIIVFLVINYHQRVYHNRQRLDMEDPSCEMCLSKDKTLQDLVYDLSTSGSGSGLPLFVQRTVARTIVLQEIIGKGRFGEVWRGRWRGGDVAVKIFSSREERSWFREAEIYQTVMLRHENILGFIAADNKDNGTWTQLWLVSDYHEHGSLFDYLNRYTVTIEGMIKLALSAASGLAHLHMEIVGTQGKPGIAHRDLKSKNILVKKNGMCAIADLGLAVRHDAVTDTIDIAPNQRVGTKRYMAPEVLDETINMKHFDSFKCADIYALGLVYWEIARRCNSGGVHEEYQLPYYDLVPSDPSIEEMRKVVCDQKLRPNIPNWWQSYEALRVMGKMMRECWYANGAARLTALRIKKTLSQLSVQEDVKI
Sequence of MAPKAPK2 (P49137 whole entry, species assumed): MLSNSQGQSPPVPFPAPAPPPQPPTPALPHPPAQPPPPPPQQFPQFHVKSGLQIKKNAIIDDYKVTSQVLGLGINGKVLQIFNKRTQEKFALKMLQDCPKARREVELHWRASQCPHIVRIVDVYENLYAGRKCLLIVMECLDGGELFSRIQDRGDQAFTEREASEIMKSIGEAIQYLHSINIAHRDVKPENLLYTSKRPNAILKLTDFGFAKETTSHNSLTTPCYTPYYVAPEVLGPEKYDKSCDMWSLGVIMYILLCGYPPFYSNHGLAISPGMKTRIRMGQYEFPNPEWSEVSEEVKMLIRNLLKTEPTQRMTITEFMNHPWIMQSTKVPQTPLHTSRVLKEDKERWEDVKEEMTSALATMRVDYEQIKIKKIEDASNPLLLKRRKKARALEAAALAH

`COc1ccc2c(c1)/C(=C/c1cnc(C3CCOCC3)[nH]1)C(=O)N2` [Compound 18, (3Z)-5-methoxy-3-[(2-tetrahydropyran-4-yl-1H-imidazol-5-yl)methylene]indolin-2-one] showed an inhibition at 0.1 µM (BRAF) of 18%, an inhibition at 0.1 µM (LCK) of 3% and an inhibition at 0.1 µM (PDGFRbeta) of 4%. The inhibition at 0.1 µM (FGFR1) was 9%, the IC50 (MARK2) was 7.94 µM and the inhibition at 0.1 µM (MARK2; @0.1 uM) was 5%. The inhibition at 0.1 µM (ALK4) was -3%, the inhibition at 0.1 µM (ERK2) was 8% and the inhibition at 0.1 µM (JAK3) was 2%. It also gave an IC50 (CDK5/p35) greater than 10 µM, an inhibition at 0.1 µM (CDK5/p35; @0.1 uM) of 1% and an inhibition at 0.1 µM (mTOR) of 12%. The inhibition at 0.1 µM (JNK1) was -5%, the inhibition at 0.1 µM (SYK) was 8% and the inhibition at 0.1 µM (PAK4) was 1%. It also gave an IC50 (AURKA) greater than 10 µM, an inhibition at 0.1 µM (AURKA; @0.1 uM) of -1% and an inhibition at 0.1 µM (PKA) of 2%. For the same compound, the inhibition at 0.1 µM (DCK2) was 8%, the inhibition at 0.1 µM (MEK1) was 16% and the IC50 (ABL1) was greater than 10 µM. For the same compound, the inhibition at 0.1 µM (ABL1; @0.1 uM) was 5%, the inhibition at 0.1 µM (RSK2) was 3% and the inhibition at 0.1 µM (CDK1/cyclinB) was 0%. It also gave an inhibition at 0.1 µM (NEK1) of 10%, an inhibition at 0.1 µM (MAPKAPK2) of 4% and an inhibition at 0.1 µM (EGFR) of -3%. For the same compound, the inhibition at 0.1 µM (GSK3beta) was 0%, the inhibition at 0.1 µM (AMPK A1/B1/G1) was -1% and the inhibition at 0.1 µM (PKC beta1) was 4%. It also gave an IC50 (CHEK1) greater than 10 µM, an inhibition at 0.1 µM (CHEK1; @0.1 uM) of 3% and an inhibition at 0.1 µM (AKT1) of -2%. For the same compound, the inhibition at 0.1 µM (CK2 alpha 1) was 6% and the inhibition at 0.1 µM (DYRK3) was 2%.
